Measured values: US10988465B2, “CXCR4 inhibitors and uses thereof” (X4 Pharmaceuticals, Inc., priority 2016, dated 2021)

Columns and labels:
[1] = Mouse brain uptake assay (MBUA), 3 mg/kg IV, 0-1 h, 3 time points; assay type: in vivo, male CD1 mice; conditions: for Kp / clearance / half-life / AUC(0-t) / Kp uu: male; for Kp: CD1, mouse, brain/plasma, iv, 3 mg/kg; for clearance / half-life: CD1, plasma, 3 time points; for clearance / half-life / AUC(0-t) / Kp uu / fraction unbound: mouse; for clearance / half-life / AUC(0-t) / Kp uu: 3 mg/kg IV, 0-1 h; for half-life: read-out: t½ (converted); for AUC(0-t) / Kp uu: CD1; for Kp uu: unbound brain/unbound plasma
Experimental: (§1) Example 38: Pharmacokinetics and Brain Penetration Experiment to Determine Brain and Plasma Concentrations of Compounds after IV Administration to Male CD1 Mice
(§2) The study design (9 animals) consisted of administrating the drug (IV: 3 mg/kg (5 mL/kg) via tail vein injection) and collecting samples at terminal bleeding for plasma and brain at 0.083, 0.5 and 1 h. The IV dosing solution was prepared in 50 mM citrate buffer (pH 4.0) at 0.6 mg/mL. The blood collection was performed as follows: the animal was restrained manually and approximately 150 μL blood/time point was collected into a dipotassium EDTA tube via retro orbital puncture under anesthesia with isoflurane. The blood sample was put on ice and centrifuged to obtain a plasma sample (2000 g, 5 min under 4° C.) within 15 minutes. The brain collection was performed as follows: a mid-line incision was made in the animal's scalp and the skin was retracted. Using small bone cutters and rongeurs, the skull overlying the brain was removed. The brain was removed using a spatula and the brain rinsed with cold saline. The brain was placed in screw-top tubes, and the tubes were stored at −70° C. until analysis.
(§3) An aliquot of 30 μL sample was added to 150 μL MeCN containing 50 ng/mL IS (Dexamethasone). The mixture was vortexed for 5 min and centrifuged at 14,000 rpm for 5 min. An aliquot of 5 μL supernatant was injected for LC-MS/MS analysis.
(§4) An aliquot of 30 μL brain homogenate (brain:PBS=1:3, w/v) sample was added to 150 μL IS in MeCN (Dexamethasone, 50 ng/mL). The mixture was vortexed for 5 min and centrifuged at 14,000 rpm for 5 min. An aliquot of 5 μL supernatant was injected for LC-MS/MS analysis.
(§5) The sample analysis was performed on LCMS/MS-003 (API4000, triple quadruple) under the following conditions: positive ion, ESI, MRM detection using dexamethasone as internal standard. HPLC conditions: mobile phase A: H2O (0.025% formic acid (FA) with 1 mM NH4OAc); mobile phase B: MeOH (0.025% FA with 1 mM NH4OAc) on Waters X-Bridge C18 (2.1×50 mm, 2.5 μm) column at 60° C.

[2] = in vitro; conditions: human, Caco-2, pH 7.4
Method in brief: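 Caco-2 monolayers, checked by TEER with Lucifer yellow as marker, were dosed with 10 μM compound in HBSS pH 7.4 in A-to-B and B-to-A directions. Incubation was 90 min at 37° C, in duplicate. Samples were quantified by LC-MS/MS and Papp calculated.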

[3] = molecular target: T1, CXCR-4 transfected U87 cell line (U87.CXCR4) (Homo sapiens, UniProt P61073); assay: Intracellular CXCL-12-induced calcium mobilization assay (FLIPR); assay type: cell-based; conditions: U87.CXCR4 cells; CXCL-12 25-50 ng/mL; compound added 15 min before; read-out: IC50 CXCL-12 Ca^2+ flux U87.CXCR4+
T1 construct: expressed in transfected cells; host or cells: U87 (U87.CXCR4)
T1 sequence (P61073 whole entry): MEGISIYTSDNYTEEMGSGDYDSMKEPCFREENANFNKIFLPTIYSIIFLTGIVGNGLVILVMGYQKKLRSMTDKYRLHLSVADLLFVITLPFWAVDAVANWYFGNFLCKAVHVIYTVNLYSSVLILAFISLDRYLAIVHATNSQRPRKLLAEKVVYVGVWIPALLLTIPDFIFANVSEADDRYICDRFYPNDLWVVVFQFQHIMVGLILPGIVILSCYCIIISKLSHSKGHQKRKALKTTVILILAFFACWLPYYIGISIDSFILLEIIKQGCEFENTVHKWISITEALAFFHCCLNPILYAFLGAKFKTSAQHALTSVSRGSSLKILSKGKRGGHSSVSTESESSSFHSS
Method in brief: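 U87 cells stably expressing human CXCR4, loaded with Fluo-2 AM (4 μM final) for 45 min at 37 °C in HBSS/20 mM HEPES/0.2% BSA, pH 7.4. Calcium flux triggered by CXCL-12 (25-50 ng/mL) was followed by FLIPR fluorescence over time at 37 °C.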

[4] = molecular target: T2, Jurkat cells expressing CXCR4 (Homo sapiens, UniProt P61073); assay: Chemokine (CXCL12-AF647) binding inhibition assay; conditions: CXCL12-AF647 25 ng/mL, read-out: IC50 CXCL-12 binding Jurkat
T2 construct: endogenous in cells; host or cells: Jurkat
T2 sequence (P61073 whole entry): as above
Method in brief: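 Cells in HBSS, 20 mM HEPES, 0.2% BSA, pH 7.4, preincubated 15 min at room temperature with compound, then 25 ng/mL CXCL12-AF647 for 30 min. After washing and paraformaldehyde fixation, bound ligand read by flow cytometry; percent inhibition calculated from MFI relative to unlabeled and ligand-only controls.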

[5] = Mouse brain uptake assay (MBUA), 3 mg/kg IV, 0-24 h, 4 time points; assay type: in vivo, male CD1 mice; conditions: for Kp / AUC(0-t) / Kp uu / clearance / half-life: male; for Kp: CD1, mouse, brain/plasma, iv, 3 mg/kg; for AUC(0-t) / Kp uu: CD1; for AUC(0-t) / Kp uu / fraction unbound / clearance / half-life: mouse; for AUC(0-t) / Kp uu / clearance / half-life: 3 mg/kg IV, 0-24 h; for Kp uu: unbound brain/unbound plasma; for clearance / half-life: CD1, plasma, 4 time points; for half-life: read-out: t½ (converted)
Experimental: as §1, §2, §3, §4, §5
A similar experiment was performed with 4 time points taken from 0-24 h.

[6] = fraction unbound to brain proteins, read-out: Fu (b) %
[7] = fraction unbound to plasma proteins, read-out: Fu (p) %

Structure (SMILES) | Kp [1] | clearance [1] [mL/min/kg] | half-life [1] [min] | AUC(0-t) ([1]; brain, read-out: AUClast (b)) [ng·h/mL] | AUC(0-t) ([1]; plasma, read-out: AUClast (P)) [ng·h/mL] | Kp uu ([1]; read-out: Kp, uu) | fraction unbound [1, 6] | fraction unbound [1, 7] | Papp A→B at 90 min, 10 μM [2] [×10⁻⁶ cm/s] | Papp B→A at 90 min, 10 μM [2] [×10⁻⁶ cm/s] | efflux ratio at 90 min, 10 μM [2] | IC50 [3] [nM] | IC50 [4] [nM] | Kp [5] | AUC(0-t) ([5]; brain, read-out: AUClast (b)) [ng·h/mL] | AUC(0-t) ([5]; plasma, read-out: AUClast (P)) [ng·h/mL] | other results
Cc1cccnc1[C@@H]1CCC[C@H](c2nc3ccccc3n2CC2CCN(C)CC2)N1C [I-15, 2-((2R,6S)-1-methyl-6-(3-methylpyridin-2-yl)piperidin-2-yl)-1-((1-methylpiperidin-4-yl)methyl)-1H-benzo[d]imidazole] | 0.34 | 282 | 17.8 | 55.3 | 161 | 0.02 | 0.004 | 0.076 | 0.1 to 10 | 10 to 30 | 0.1 to 10 | 0.01 to 100 | 0.01 to 100 |  |  |  | 
CN1CCN(c2cccc3nc([C@H]4CCC[C@@H](c5ncccc5Cl)N4C)[nH]c23)CC1 [I-9, 2-((2R,6S)-6-(3-chloropyridin-2-yl)-1-methylpiperidin-2-yl)-7-(4-methylpiperazin-1-yl)-1H-benzo[d]imidazole] | 2.51 | 77.2 | 16 | 1510 | 601 | 0.73 | 0.016 | 0.055 | 10 to 30 | 10 to 30 | 0.1 to 10 | 100 to 1000 | 0.01 to 100 |  |  |  | 
Cc1cccnc1[C@@H]1CCC[C@H](c2nc3cccc(N4CCN(C)C5(CC5)C4)c3[nH]2)N1 [I-132] | 1.66 | 19.7 | 185 | 539 | 323 | 0.54 | 0.01 | 0.031 | 10 to 30 | 10 to 30 | 0.1 to 10 | 0.01 to 100 | 0.01 to 100 |  |  |  | 
Cc1cccnc1[C@@H]1CCC[C@H](c2nc3cccc(N4CCN(C)CC4)c3[nH]2)N1 [I-83] | 0.35 | 101 | 38.2 | 112 | 316 | 0.04 | 0.018 | 0.163 | 0.1 to 10 | 10 to 30 | 0.1 to 10 | 0.01 to 100 | 0.01 to 100 |  |  |  | 
Cc1cccnc1[C@@H]1CCC[C@H](c2nc3ccccc3n2CC2CCN(C(C)C)CC2)N1C [I-23, 1-((1-isopropylpiperidin-4-yl)methyl)-2-((2R,6S)-1-methyl-6-(3-methylpyridin-2-yl)piperidin-2-yl)-1H-benzo[d]imidazole] | 0.41 | 375 | 18.1 | 49.7 | 120 |  | 0.002 | 0.189 | 0.1 to 10 | 0.1 to 10 | 0.1 to 10 | 0.01 to 100 | 0.01 to 100 |  |  |  | Kp uu [1]: 0
Cc1cccnc1[C@@H]1CCC[C@H](c2nc3cccc(N4C5CCC4CN(C)C5)c3[nH]2)N1 [I-120] |  |  |  |  |  |  |  |  | 10 to 30 | 10 to 30 | 0.1 to 10 | 0.01 to 100 | 0.01 to 100 | 1.05 | 5110 | 4820 | Kp uu [5]: 0.07; fraction unbound [5, 6]: 0.014; fraction unbound [5, 7]: 0.201
COc1ccnc([C@@H]2CCC[C@H](c3nc4cccc(N5CCN(C)CC5)c4[nH]3)N2C)c1C [I-81] |  |  |  |  |  |  |  |  | 0.1 to 10 | 0.1 to 10 | 0.1 to 10 | 0.01 to 100 | 0.01 to 100 | 7.96 | 11700 | 1470 | clearance [5]: 33.3 mL/min/kg; half-life [5]: 286 min; Kp uu [5]: 1.01; fraction unbound [5, 6]: 0.019; fraction unbound [5, 7]: 0.149
Cc1cccnc1[C@@H]1CCC[C@H](c2nc3cccc(N4CCN(C)C5(CC5)C4)c3[nH]2)N1C [I-108] |  |  |  |  |  |  |  |  | > 30 | 10 to 30 | 0.1 to 10 | 100 to 1000 | 0.01 to 100 | 55.8 | 22800 | 408 | clearance [5]: 115 mL/min/kg; half-life [5]: 15.1 min
COc1cccnc1[C@@H]1CCC[C@H](c2nc3cccc(N4CCN(C)CC4)c3[nH]2)N1 [I-127] | 0.31 | 132 | 23.2 | 99.7 | 313 | 0.07 | 0.048 | 0.215 | 0.1 to 10 | 10 to 30 | 0.1 to 10 | 0.01 to 100 | 0.01 to 100 |  |  |  | 
